From publication PMC8270270, “Rosin Derivatives as a Platform for the Antiviral Drug Design” (Molecules, 2021)
In brackets after ≈: the same amount, converted by molar mass. Read-outs that look alike come from different tables or passages of the source.

How the values were obtained:
Candida tropicalis = experiment: Disco-diffuse method, fungicidal activity; type: cell-based; conditions: for zone of inhibition at 1000 µg/mL / zone of inhibition at 5000 µg/mL / zone of inhibition at 10000 µg/mL / zone of inhibition at 25000 µg/mL / zone of inhibition at 50000 µg/mL: Candida tropicalis, 48 h at 32 °C, read-out: The Zone of Growth Inhibition; for zone of inhibition at 1000 µg/mL: compound concentration 1 mg/mL; for zone of inhibition at 5000 µg/mL: compound concentration 5 mg/mL; for zone of inhibition at 10000 µg/mL: compound concentration 10 mg/mL; for zone of inhibition at 25000 µg/mL: compound concentration 25 mg/mL; for zone of inhibition at 50000 µg/mL: compound concentration 50 mg/mL
Description: (§1) The determination of compounds (I, IV, VI–XI) effect concerning microorganisms was carried out using test strains of Escherichia coli, Bacillus subtilis, and Candida tropicalis. They are not only natural inhabitants of natural biocenoses but also a part of human microbiocenosis. Used microorganisms of bacteria were selected as representatives of the Gram-positive and Gram-negative human microbiota. The antibacterial activity of compounds (I, IV, VI–XI) was studied by the disco-diffuse method. The strain culture was transferred sterile from the mown agar into test tubes with 5 mL of nutrient medium to obtain a “night culture” 12–15 h before the experiment. Beef-extract agar (BEA) was used as a nutrient medium for the development of bacterial cells, and Sabouraud’s medium was used for yeast. Bacterial cultures were incubated in a thermostat at 37 °C, and yeast cultures at 32 °C. The melted BEA was poured sterile into Petri dishes (diameter 90 mm) and evenly distributed over the bottom of the dish, covered with a lid, and left on the table until it solidified completely. Next, the dishes with BEA were inoculated with a “lawn” by introducing a strain culture (suspension titer −1–2 × 10^8 CFU/mL) in an amount of 500 µL and evenly distributing it with a sterile spatula. The dishes were left for 60–90 min to dry the culture. Compounds (I, IV, VI–XI) were previously dissolved, and the sequential dilutions were applied to disks. Dimethyl sulfoxide (DMSO) was used as a solvent for the DAA. Water was used as a solvent for their potassium salts. […] This disk was impregnated with a solution of the test compound amounting to 100 μL and incubated in the dark for 24 h at 37 °C (Escherichia coli and Bacillus subtilis) and 48 h at 32 °C (Candida tropicalis). The solution diffuses, forming a concentration gradient of the test compound around the disc. After the incubation period, the inhibition zone or stimulation of microbial growth around the disk was measured in the experimental and control samples. A conclusion was made about the degree (bactericidal) toxicity of compounds. Solvent-treated disks (DMSO) were used as controls. The experiments were performed three times.

Escherichia coli = experiment: Disco-diffuse method, antibacterial activity; type: cell-based; conditions: for zone of inhibition at 1000 µg/mL: compound concentration 1 mg/mL; for zone of inhibition at 1000 µg/mL / zone of inhibition at 5000 µg/mL / zone of inhibition at 10000 µg/mL / zone of inhibition at 25000 µg/mL / zone of inhibition at 50000 µg/mL: 24 h at 37 °C, read-out: The Zone of Growth Inhibition; for zone of inhibition at 5000 µg/mL: compound concentration 5 mg/mL; for zone of inhibition at 10000 µg/mL: compound concentration 10 mg/mL; for zone of inhibition at 25000 µg/mL: compound concentration 25 mg/mL; for zone of inhibition at 50000 µg/mL: compound concentration 50 mg/mL
Description: as §1

Bacillus subtilis = experiment: Disco-diffuse method, antibacterial activity; type: cell-based; conditions: for zone of inhibition at 1000 µg/mL: compound concentration 1 mg/mL; for zone of inhibition at 1000 µg/mL / zone of inhibition at 5000 µg/mL / zone of inhibition at 10000 µg/mL / zone of inhibition at 25000 µg/mL / zone of inhibition at 50000 µg/mL: 24 h at 37 °C, read-out: The Zone of Growth Inhibition; for zone of inhibition at 5000 µg/mL: compound concentration 5 mg/mL; for zone of inhibition at 10000 µg/mL: compound concentration 10 mg/mL; for zone of inhibition at 25000 µg/mL: compound concentration 25 mg/mL; for zone of inhibition at 50000 µg/mL: compound concentration 50 mg/mL
Description: as §1

A549 cell culture = experiment: Cytotoxicity, colorimetric MTT assay; type: cell-based, human; conditions: for Cytotoxicity (in words): A549, MTT assay; for IC50: Homo sapiens, read-out: Determined IC50
Description: The cytotoxicity of compounds (I–V) was assessed on A549 cell culture using a colorimetric MTT assay. A549 cells were incubated for 24 h at 37 °C, 5% CO2 with solutions of the studied compounds at various concentrations. Next, the cell monolayer was washed, and MTT solution was added in a volume of 0.1 mL at a concentration of […]. After 1 h of MTT contact with the cells, the wells were washed, and the formed formazan crystals were dissolved in 0.1 mL of DMSO. The results were recorded at 560 nm on a CLARIOstar Plus plate photometer (BMG LABTECH, Ortenberg, Germany). The IC50 was calculated using GraphPad Prism 6.0.

[1] = tested on: A/California/07/09 ((A)H1N1pdm09) viral strain; type: cell-based, influenza virus; conditions: working concentration
[2] = tested on: herpes simplex virus type 1 (HSV-1); design: method as in PMID 19892441; conditions: endpoint titration (EPTT); cited from earlier work
[3] = at the working concentrations used to assess antiviral activity

Structure (SMILES)	zone of inhibition at 1000 µg/mL (Candida tropicalis) [mm]	zone of inhibition at 5000 µg/mL (Candida tropicalis) [mm]	zone of inhibition at 10000 µg/mL (Candida tropicalis) [mm]	zone of inhibition at 25000 µg/mL (Candida tropicalis) [mm]	zone of inhibition at 50000 µg/mL (Candida tropicalis) [mm]	zone of inhibition at 1000 µg/mL (Escherichia coli; Escherichia coli) [mm]	zone of inhibition at 5000 µg/mL (Escherichia coli; Escherichia coli) [mm]	zone of inhibition at 10000 µg/mL (Escherichia coli; Escherichia coli) [mm]	zone of inhibition at 25000 µg/mL (Escherichia coli; Escherichia coli) [mm]	zone of inhibition at 50000 µg/mL (Escherichia coli; Escherichia coli) [mm]	zone of inhibition at 1000 µg/mL (Bacillus subtilis; Bacillus subtilis) [mm]	zone of inhibition at 5000 µg/mL (Bacillus subtilis; Bacillus subtilis) [mm]	zone of inhibition at 10000 µg/mL (Bacillus subtilis; Bacillus subtilis) [mm]	zone of inhibition at 25000 µg/mL (Bacillus subtilis; Bacillus subtilis) [mm]	zone of inhibition at 50000 µg/mL (Bacillus subtilis; Bacillus subtilis) [mm]	Cytotoxicity (in words) (A549 cell culture)	Concentration at which HSV-1 replication was reduced [2]	further results
CC(C)C1=CC2=CCC3C(C)(CO)CCCC3(C)C2CC1 (stereo not drawn) [XI, Abietinol]	0	1 ± 0.1	2 ± 0.1	4 ± 0.25	4.2 ± 0.15	0	1 ± 0.1	1 ± 0.1	3.5 ± 0.21	5 ± 0.14	1 ± 0.15	2.2 ± 0.05	2 ± 0.15	4 ± 0.12	4 ± 0.09			MIC (Escherichia coli; Escherichia coli, from disc diffusion, 1-50 mg/mL, read-out: minimum inhibitory concentration): 5000 mg/L (≈ 17.3 mM); MIC (Bacillus subtilis; Bacillus subtilis, from disc diffusion, 1-50 mg/mL, read-out: minimum inhibitory concentration): 1000 mg/L (≈ 3.47 mM)
CC(C)c1cc2c(cc1S(=O)(=O)O)C1(C)CCCC(C)(C(=O)O)C1CC2 (stereo not drawn) [I, 12-sulfodehydroabietic acid]	0	0	0	0	0	0	0	0	0	0	0	0	0	0	0	weak toxicity		IC50 (A549 cell culture; A549, 24 h incubation, MTT assay): > 518 mg/L; Cell viability (in words) (A549 cell culture; [3]): did not cause a significant decrease in cell viability; Fungicidal activity (in words) (Candida tropicalis; 1-50 mg/mL): did not show either antibacterial activity or fungicidal activity; Antiviral activity (in words) ([1]; A549, in vitro): did not show antiviral activity; Antibacterial activity (in words) (Escherichia coli; 1-50 mg/mL): did not show either antibacterial activity or fungicidal activity; Antibacterial activity (in words) (Bacillus subtilis; 1-50 mg/mL): did not show either antibacterial activity or fungicidal activity
CC(=O)OC[C@]1(C)CCC[C@]2(C)c3ccc(C(C)C)cc3CC[C@@H]12 [dehydroabietinol acetate]																	below 100 mg/mL	
CC(C)c1cc2c(cc1Br)C1(C)CCCC(C)(C(=O)[O-])C1CC2.[K+] (stereo not drawn) [III, Potassium 12-bromodehydroabietate]																highest cytotoxicity		IC50 (A549 cell culture; A549, 24 h): 140 mg/L; Decrease in viable cells (A549 cell culture; [3]): 50%; Content of viral protein NP inside the cells (ELISA) ([1]; A549, therapeutic scheme, 24 h after stimulation): decrease in the content of the viral protein NP inside the cells
CC(C)c1ccc2c(c1)CC[C@H]1[C@](C)(COC(=O)c3ccccc3)CCC[C@]21C [dehydroabietinol benzoate]																	below 100 mg/mL	
